Measurements: EPA's ToxValDB 9.5 (doi:10.2903/j.efsa.2012.2502)

Key:
[1] = system: Colinus virginianus; details: acute, oral, mortality
[2] = system: Apis mellifera; details: acute, mortality
[3] = system: Oncorhynchus mykiss; details: acute; duration: 96 hours; mortality
[4] = system: Oryctolagus sp.; details: developmental; development
[5] = system: Rattus norvegicus; details: for LD50: acute, oral, mortality; for NOAEL: reproduction developmental, histopathology: nonneoplastic
[6] = system: Tagia sp.; details: acute; duration: 14 days; mortality
[7] = system: Typhlodromus pyri; assay: LR50; higher = less toxic; details: not reported; mortality

With `C=C1C[C@]23C[C@@]1(O)CC[C@H]2[C@@]12C=C[C@H](O)[C@@](C)(C(=O)O1)[C@H]2[C@@H]3C(=O)O` [Gibberellic acid] the LD50 ([1]; diet) was > 1380 mg/kg-day and the LD50 [1] was > 2250 mg/kg.

For `C=C1C[C@]23C[C@H]1CC[C@H]2[C@@]12C=C[C@H](O)[C@@](C)(C(=O)O1)[C@H]2[C@@H]3C(=O)O` [Gibberellin A7], the LD50 ([2]; dermal) was > 100 µg/piece, the LD50 ([2]; oral, unspecified) was > 87 µg/piece and the LC50 [3] was > 1.3 µg/mL. The NOAEL [4] was 300 mg/kg-day, the LD50 [5] was > 5000 mg/kg and the NOAEL [5] was 300 mg/kg-day. The LC50 [6] was > 1250 mg/kg and the LR50 [7] was > 40 g/ha.

`C=C1C[C@]23C[C@H]1CC[C@H]2[C@@]12CC[C@H](O)[C@@](C)(C(=O)O1)[C@H]2[C@@H]3C(=O)O` [Gibberellin A4] was tested, and the LD50 ([2]; dermal) was > 100 µg/piece, the LD50 ([2]; oral, unspecified) was > 87 µg/piece and the LC50 [3] was > 1.3 µg/mL. The NOAEL [4] was 300 mg/kg-day, the LD50 [5] was > 5000 mg/kg and the NOAEL [5] was 300 mg/kg-day. The LC50 [6] was > 1250 mg/kg and the LR50 [7] was > 40 g/ha.
